Measurements from patent US8466088B2, “Herbicidal compositions containing benzoylpyrazole compounds” (Ishihara Sangyo Kaisha, Ltd., priority 2007, dated 2013).
Read-outs that look alike come from different tables or passages of the source.

Experiments:
crabgrass = assay: Example 1: pot test, foliar treatment, visually observed growth inhibition of crabgrass; type: in vivo; details: Digitaria sanguinalis, foliar, read-out: Growth inhibition rate (%) of crabgrass, Measured value
velvetleaf = assay: Example 1: pot test, foliar treatment, visually observed growth inhibition of velvetleaf; type: in vivo, Abutilon theophrasti MEDIC.; details: Abutilon theophrasti, foliar, foliar, read-out: Growth inhibition rate (%) of velvetleaf, Measured value
various plants = assay: Example 1: pot test, foliar treatment, visually observed growth inhibition of other sown plants (Tables 5-1 to 5-137); type: in vivo; details: foliar
Excerpt: When the herbicidal activity in a case where two active ingredients are combined, is larger than the simple sum of the respective herbicidal activities of the two active ingredients (the expected activity), it is called a synergistic effect. The activity expected by the combination of two active ingredients can be calculated as follows (Colby S. R., “Weed”, vol. 15, p. 20-22, 1967). E=α+β−(α×β+100) where
α: growth inhibition rate when treated with x (g/ha) of herbicide X,
β: growth inhibition rate when treated with y (g/ha) of herbicide Y,
E: growth inhibition rate expected when treated with x (g/ha) of herbicide X and y (g/ha) of herbicide Y.
That is, when the actual growth inhibition rate (measured value) is larger than the growth inhibition rate by the above calculation (calculated value), the activity by the combination can be regarded as showing a synergistic effect.
Upland field soil was put into a 1/1,000,000 hectare pot, and seeds of various plants were sown. When the respective plants reached predetermined leaf stage, herbicidal compositions in predetermined amounts were diluted with water in an amount corresponding to 300 L/ha and applied for foliar treatment by a small sprayer.
On the 14th to 28th day after application, the state of growth of the respective plants was visually observed to determine the growth inhibition rate (measured value) in accordance with the following evaluation standard. Further, in accordance with the above Colby's formula, the growth inhibition rate (calculated value) was calculated. In Tables, with respect to the compound A, Compound Nos. in Table 1 or 3 are described, and with respect to other herbicidal compounds, common names are described.

[1] = 2.7 to 3.6 leaf stage, 21st day after application
[2] = 3.1 to 4.0 leaf stage, 22nd day after application
[3] = 3.2 to 4.3 leaf stage, on the 22nd day after application, active ingredient amount 250 g/ha
[4] = 4.3 to 4.5 leaf stage, 20th day after application, 125 g/ha
[5] = 4.3 to 4.5 leaf stage, 20th day after application, 250 g/ha
[6] = 2.4 to 3.2 leaf stage, on the 22nd day after application, active ingredient amount 125 g/ha
[7] = 2.8 to 3.6 leaf stage, 24th day after application
[8] = 3.0 to 3.5 leaf stage, 20th day after application, 125 g/ha
[9] = 3.2 to 4.1 leaf stage, 21st day after application
[10] = 4.0 to 4.4 leaf stage, 22nd day after application

CCNc1nc(Cl)nc(NC(C)C)n1 [Atrazine, atrazine, reference compound]
inhibition at 175 g/ha (crabgrass; [1]): 0% | inhibition at 375 g/ha (crabgrass; [1]): 20% | inhibition at 375 g/ha (crabgrass; [2]): 0% | inhibition at 125 g/ha (crabgrass; 3.2 to 4.3 leaf stage, on the 22nd day after application, active ingredient amount 125 g/ha): 0% | inhibition at 250 g/ha (crabgrass; [3]): 0% | inhibition at 150 g/ha (crabgrass; 3.8 to 4.4 leaf stage, 21st day after application, 150 g/ha): 0% | inhibition at 125 g/ha (crabgrass; 4.0 to 4.5 leaf stage, 21st day after application, 125 g/ha): 10% | inhibition at 250 g/ha (crabgrass; 4.0 to 4.5 leaf stage, 21st day after application, 250 g/ha): 10% | inhibition at 125 g/ha (crabgrass; [4]): 0% | inhibition at 250 g/ha (crabgrass; [5]): 0% | inhibition at 125 g/ha (velvetleaf; [6]): 10% | inhibition at 1000 g/ha (velvetleaf; 2.8 to 3.6 leaf stage, 24th day after application, 1000 g/ha): 15% | inhibition at 1500 g/ha (velvetleaf; 2.8 to 3.6 leaf stage, 24th day after application, 1500 g/ha): 15% | inhibition at 2000 g/ha (velvetleaf; [7]): 25% | inhibition at 125 g/ha (velvetleaf; [8]): 0% | inhibition at 125 g/ha (velvetleaf; 3.0 to 3.5 leaf stage, 21st day after application, 125 g/ha): 10% | inhibition at 250 g/ha (velvetleaf; 3.0 to 3.5 leaf stage, 21st day after application, 250 g/ha): 20% | inhibition at 150 g/ha (velvetleaf; 3.0 to 3.8 leaf stage, 15th day after application): 0% | inhibition at 175 g/ha (velvetleaf; [9]): 3% | inhibition at 375 g/ha (velvetleaf; [9]): 5% | inhibition at 150 g/ha (velvetleaf; 3.2 to 5.0 leaf stage, 21st day after application): 60% | inhibition at 150 g/ha (velvetleaf; 3.5 to 4.3 leaf stage, 21st day after application): 0% | inhibition at 175 g/ha (velvetleaf; [10]): 20% | inhibition at 375 g/ha (velvetleaf; [10]): 25% | inhibition at 31 g/ha (various plants; Ipomoea, ivyleaf morningglory 1.5 to 2.1 leaf stage, 23rd day after application, 31 g/ha, read-out: Growth inhibition rate (%) of ivyleaf morningglory, Measured value): 0% | inhibition at 90 g/ha (various plants; Ipomoea, ivyleaf morningglory 1.5 to 2.1 leaf stage, 23rd day after application, 90 g/ha, read-out: Growth inhibition rate (%) of ivyleaf morningglory, Measured value): 0% | inhibition at 180 g/ha (various plants; Ipomoea, ivyleaf morningglory 1.5 to 2.1 leaf stage, 23rd day after application, 180 g/ha, read-out: Growth inhibition rate (%) of ivyleaf morningglory, Measured value): 0% | inhibition at 500 g/ha (various plants; Ipomoea, ivyleaf morningglory 1.5 to 2.1 leaf stage, 23rd day after application, read-out: Growth inhibition rate (%) of ivyleaf morningglory, Measured value): 83%

CCNc1nc(Cl)nc(NC(C)(C)C)n1 [Terbuthylazine, terbuthylazine, reference compound]
inhibition at 175 g/ha (crabgrass; [2]): 0% | inhibition at 375 g/ha (crabgrass; [2]): 0% | inhibition at 250 g/ha (crabgrass; [3]): 20% | inhibition at 125 g/ha (crabgrass; 3.5 to 4.0 leaf stage, 21st day after application, 125 g/ha): 0% | inhibition at 125 g/ha (crabgrass; [4]): 0% | inhibition at 250 g/ha (crabgrass; [5]): 0% | inhibition at 125 g/ha (velvetleaf; 2.0 to 2.5 leaf stage, 21st day after application, 125 g/ha): 0% | inhibition at 125 g/ha (velvetleaf; [6]): 5% | inhibition at 2000 g/ha (velvetleaf; [7]): 20% | inhibition at 125 g/ha (velvetleaf; [8]): 0% | inhibition at 375 g/ha (velvetleaf; 3.3 to 4.3 leaf stage, 20th day after application): 20% | inhibition at 750 g/ha (velvetleaf; 3.3 to 4.3 leaf stage, 20th day after application, 750 g/ha): 30% | inhibition at 175 g/ha (velvetleaf; [10]): 15% | inhibition at 375 g/ha (velvetleaf; [10]): 25% | inhibition at 45 g/ha (various plants; prickly sida 2.1 to 3.1 leaf stage, 20th day after application, 45 g/ha, read-out: Growth inhibition rate (%) of prickly sida, Measured value): 0% | inhibition at 63 g/ha (various plants; prickly sida 2.1 to 3.1 leaf stage, 20th day after application, 63 g/ha, read-out: Growth inhibition rate (%) of prickly sida, Measured value): 0% | inhibition at 125 g/ha (various plants; prickly sida 2.1 to 3.1 leaf stage, 20th day after application, 125 g/ha, read-out: Growth inhibition rate (%) of prickly sida, Measured value): 0% | inhibition at 250 g/ha (various plants; prickly sida 2.1 to 3.1 leaf stage, 20th day after application, 250 g/ha, read-out: Growth inhibition rate (%) of prickly sida, Measured value): 15% | inhibition at 500 g/ha (various plants; prickly sida 2.1 to 3.1 leaf stage, 20th day after application, read-out: Growth inhibition rate (%) of prickly sida, Measured value): 55%

COc1cc(OC)nc(NC(=O)NS(=O)(=O)c2ncccc2C(=O)N(C)C)n1 [Nicosulfuron]
inhibition at 30 g/ha (crabgrass; 3.5 to 4.2 leaf stage, 20th day after application, 30 g/ha): 92% | inhibition at 15 g/ha (crabgrass; 3.8 to 4.4 leaf stage, 21st day after application): 45% | inhibition at 15 g/ha (crabgrass; 3.8 to 5.2 leaf stage, 21st day after application): 40% | inhibition at 15 g/ha (crabgrass; 4.3 to 4.5 leaf stage, 20th day after application): 88% | inhibition at 10 g/ha (velvetleaf; 2.5 to 3.3 leaf stage, 21st day after application, 10 g/ha): 10% | inhibition at 20 g/ha (velvetleaf; 2.5 to 3.3 leaf stage, 21st day after application, 20 g/ha): 20% | inhibition at 30 g/ha (velvetleaf; 2.5 to 3.3 leaf stage, 21st day after application, 30 g/ha): 20% | inhibition at 80 g/ha (velvetleaf; 2.8 to 3.6 leaf stage, 24th day after application, 80 g/ha): 60% | inhibition at 15 g/ha (velvetleaf; 3.0 to 3.5 leaf stage, 21st day after application): 45% | inhibition at 15 g/ha (velvetleaf; 3.0 to 3.8 leaf stage, 28th day after application): 10% | inhibition at 50 g/ha (velvetleaf; 3.3 to 4.3 leaf stage, 20th day after application, 50 g/ha): 50% | inhibition at 7 g/ha (various plants; prickly sida 2.1 to 3.1 leaf stage, 20th day after application, 7 g/ha, read-out: Growth inhibition rate (%) of prickly sida, Measured value): 0% | inhibition at 20 g/ha (various plants; prickly sida 2.1 to 3.1 leaf stage, 20th day after application, 20 g/ha, read-out: Growth inhibition rate (%) of prickly sida, Measured value): 0% | inhibition at 30 g/ha (various plants; prickly sida 2.1 to 3.1 leaf stage, 20th day after application, 30 g/ha, read-out: Growth inhibition rate (%) of prickly sida, Measured value): 10% | inhibition at 60 g/ha (various plants; prickly sida 2.1 to 3.1 leaf stage, 20th day after application, 60 g/ha, read-out: Growth inhibition rate (%) of prickly sida, Measured value): 55%
